The nature of data set [1]: Fluorescence spectrum (excitation and fluorescence maxima). Type of data set: physicochemical. From the text:
The fluorescence spectra of CDG synthesized in (1) and QDG synthesized in (2) were compared with the fluorescence spectrum of 2-NBDLG (manufactured by Peptide Institute, Inc.).
The numeric values described above the graph denote the fluorescence maximum of CDG and QDG, respectively. It is evident that the fluorescence maximum was largely shifted to shorter wavelength as compared with the fluorescence maximum of 2-NBDLG present around 550 nm.

Data set [2] relates to MIN6 cell masses (spheroids). Put plainly: Fluorescent imaging of tumor cell masses (spheroids) of MIN6 cells with mixed fluorescent glucose derivative solutions. Type of data set: cell-based, mouse. The note with it: 100 μM CDG+100 μM 2-NBDLG+20 μM 2-TRLG mixed solution, 3 minutes, 6 minutes after start of washout, culture day 17. Here is the method:
A fluorescent mixed solution containing 100 μM CDG, 100 μM 2-NBDLG, and 20 μM 2-TRLG (CDG/2-NBDLG/2-TRLG) was administered at 37° C. for 3 minutes to MIN6 cell masses (spheroids) at culture day 17, and fluorescent imaging was conducted.
10 μL of a culture solution containing MIN6 cells suspended at a density of 6×10^4 cells/mL was added dropwise onto each glass cover slip, and then, the glass cover slip was left standing for 40 minutes in an incubator for fixation to the glass surface. The cells were cultured by the addition of 3 mL of a culture solution (600 cells/slip). Spheroids were formed by continuing the culture for 15 to 17 days. Half the amount of the culture solution was replaced with a fresh one once every three days.
The MIN6 cells used were cells kindly provided by professor Junichi Miyazaki (Osaka University) and subcultured 6 to 10 times. Half the amount of the culture solution was replaced with a fresh one once every two days.
13.4 g of high glucose-containing Dulbecco's modified Eagle's Medium (DMEM-HG) (Sigma-Aldrich, #D5648), 3.4 g of NaHCO3, and 5 μL of 2-mercaptoethanol were dissolved in 1 L of ultrapure water, and the pH of the solution was adjusted to 7.30 to 7.35 in a CO2 incubator of 37° C. The culture solution was supplemented with fetal bovine serum (Hyclone, Cat# SH30070.03) at a final concentration of 10% and penicillin-streptomycin at a final concentration of 0.5%.
The whole amount of the 0.5 mg CDG vial was recovered using 0.73 mL in total of 10% DMSO and dissolved by addition to 7.0 ml of a KRB solution for image acquisition according to the method described in Non Patent Literature 2.
The whole amount of one 0.5 mg 2-NBDLG vial was dissolved in 7.3 mL of a KRB solution for image acquisition.
The CDG solution and the 2-NBDLG solution were mixed at a ratio of 1:1. The whole amount of the 0.2 mg 2-TRLG vial was recovered using 130 μL in total of DMSO and mixed with 13 ml of the CDG+2-NBDLG mixed solution according to the method described in Non Patent Literature 2 (final concentration: 100 μM CDG+100 μM 2-NBDLG+20 μM 2-TRLG mixed solution). […]
The glass cover slip with the cultured MIN6 cells was transferred into the KRB solution for image acquisition in a perfusion chamber loaded on a stage of a fluorescence microscope, followed by measurement. […]
The KRB solution for image acquisition was warmed in advance in an aluminum syringe heater and supplied to the perfusion chamber through hydrostatic pressure. […] Immediately before being introduced to the perfusion chamber, the solution was rewarmed via an inline heater so that the actually measured temperature of the perfusate in an observation region in the chamber was adjusted to 36±1° C. […]

Data set [3] concerns neuronal cells of the substantia nigra pars reticulate of the midbrain. Put plainly: Fluorescent imaging of acutely isolated normal neuronal cells. The note with it: 3 minutes, 8 minutes after start of washout. Type of data set: cell-based, mouse. Here is the method:
The whole amount of the 0.5 mg CLG vial was recovered using 0.73 mL in total of 10% DMSO and dissolved (100 μM) by addition to 14.79 ml of a HEPES solution for image acquisition according to the method described in Non Patent Literature 2. […]
150 mM NaCl, 5 mM KCl, 1 mM MgCl2, 2 mM CaCl2, and 10 mM HEPES (the pH of the solution was adjusted to 7.4 with a 1 M tris(2-amino-2-hydroxymethyl-1,3-propanediol) solution). The concentration of glucose was set to 10 mM. 0.1 mM carbenoxolone (Sigma-Aldrich, #C4790) was added thereto for the purpose of inhibiting the entrance and exit of fluorescently labeled glucose by way of gap junction/hemichannel. This HEPES solution for image acquisition was used for preparing the CLG solution and the mixed solution with the additional fluorescent sugar derivative.
Neuronal cells […] to the method described in the previous reports of the inventors (WO2010/16587 (Patent Literature 2)) and (WO2012/133688 (Patent Literature 4)) and attached to each glass cover slip coated with poly-L-lysine. Then, the glass cover slip was transferred into the HEPES solution for image acquisition in a perfusion chamber loaded on a stage of a fluorescence microscope, followed by observation.
A silicon plate of 1 mm thickness bored to have a streamline-shaped hole (10 mm wide x 35 mm long) was placed via cover glass onto an aluminum heating control platform (Warner Instruments) having a round hole (diameter: 18 mm) for an objective lens at the bottom, and allowed to be in close contact with the cover glass.
The HEPES solution for image acquisition was warmed in advance in an aluminum syringe heater and supplied to the perfusion chamber through hydrostatic pressure. The perfusion rate was adjusted to 1.3±0.2 mL/min using a flow rate adjuster. Immediately before being introduced to the perfusion chamber, the solution was rewarmed via an inline heater so that the actually measured temperature of the perfusate in an observation region in the chamber was adjusted to 32.5±1° C. The CLG/2-TRLG mixed solution was able to be supplied in the same way as above and was switched with the HEPES solution for image acquisition using an electromagnetic valve capable of controlling the opening and closing of the channel. The solution was removed using a vacuum pump capable of controlling suction pressure.
The fluorescence microscope used was NIKON ECLIPS-Ti, and images were acquired with a CCD camera Retiga 2000R.
CLG and 2-TRLG were each detected using the following filter cassette.
Excitation 360/40 nm, Dichroic mirror 400 nm, Emission 460/50 nm.
Excitation 567/15 nm, Dichroic mirror 593 nm, Emission 593 nm Long pass.
The objective lens used in this method was ×20 dry lens (Nikon Plan S Fluor). The images were acquired at 1600×1200 pixels. […]

Data set [4] relates to mouse insulinoma cells (MIN6). Put plainly: Increase in fluorescence intensity (uptake) after administration of fluorescent glucose derivative to MIN6 cells, influence of cytochalasin B (CB) or phloretin (PHT), fluorescence microplate reader. Type of data set: cell-based. Particulars: QDG final concentration 100 NM as printed, Ex 354 nm, Em 435 nm.

Take `O=c1cc(C(F)(F)F)c2ccc(NC3C(O)OC(CO)[C@@H](O)C3O)cc2o1` (stereo partly drawn) [Compound 4-TFMCDG, 2-deoxy-2-(2-oxo-2H-4-trifluoromethyl-chromen-7-yl)amino-D-glucose]: in data set [1], the “maximum excitation wavelength (Ex max)” value came to 380.0 nm and the “maximum fluorescence wavelength (Em max)” value stood at 500.0 nm.
For `O=c1oc2cc(NC3C(O)OC(CO)[C@@H](O)[C@@H]3O)ccc2cc1C(F)(F)F` (stereo partly drawn) [Compound 3-TFMCDG, 2-deoxy-2-(2-oxo-3-trifluoromethyl-2H-chromen-7-yl)amino-D-glucose], in that order: 381.0 nm and 455.0 nm.
With `O=[N+]([O-])c1ccc(NC2C(O)OC(CO)[C@H](O)C2O)c2nonc12` (stereo partly drawn) [Compound 2-NBDLG, 2-[N-(7-nitrobenz-2-oxa-1,3-diazol-4-yl)amino]-2-deoxy-L-glucose, reference compound], the “maximum fluorescence wavelength (Em max)” value in data set [1] is “around 550 nm”. Besides, in data set [2], the “uptake into cells of MIN6 spheroids, intracellular localization” value was “strongly taken into the cytoplasm”.
“2-Texas Red-2-amino-2-deoxy-L-glucose [Compound 2-TRLG, reference compound]”: the “uptake into normal neuronal cells” value was “not taken into the normal neuronal cells” in data set [3] (100 μM CDG+20 μM 2-TRLG mixed solution, 14-day-old mouse) and “not taken into the normal neuronal cells” in data set [3] (100 μM CLG+20 μM 2-TRLG mixed solution, 21-day-old mouse). Besides, the “uptake in the central portion of the spheroid” value in data set [2] is listed as “strong uptake”.
Consider `Cc1cc(=O)oc2cc(NC3C(O)OC(CO)[C@@H](O)[C@@H]3O)ccc12` (stereo partly drawn) [Compound 4-MCDG, 2-deoxy-2-(2-oxo-4-methyl-2H-chromen-7-yl)amino-D-glucose], for which, in data set [1], the “maximum excitation wavelength (Ex max)” value is given as 362.0 nm and the “maximum fluorescence wavelength (Em max)” value is recorded as 446.0 nm.
For `O=c1ccc2ccc(NC3C(O)OC(CO)[C@H](O)[C@H]3O)cc2[nH]1` (stereo partly drawn) [QLG, 2-deoxy-2-(2-oxo-1,2-dihydroquinolin-7-yl)amino-L-glucose], in that order: 353.5 nm and 423.0 nm.
As to `O=c1ccc2ccc(NC3C(O)OC(CO)[C@@H](O)[C@@H]3O)cc2[nH]1` (stereo partly drawn) [QDG, 2-deoxy-2-(2-oxo-1,2-dihydroquinolin-7-yl)amino-D-glucose], in data set [1], the “maximum excitation wavelength (Ex max)” value is given as 353.5 nm and the “maximum fluorescence wavelength (Em max)” value is 423.0 nm. Moreover, the “effect of CB on increase in fluorescence intensity caused by administration” value in data set [4] (CB as in Example 11) is reported as “significantly inhibited”. Also, the “effect of PHT on increase in fluorescence intensity caused by administration” value in data set [4] (PHT as in Example 12) is “more strongly inhibited”.
Turning to `Cc1cc2ccc(NC3C(O)OC(CO)[C@@H](O)[C@@H]3O)cc2oc1=O` (stereo partly drawn) [Compound 3-MCDG, 2-deoxy-2-(2-oxo-3-methyl-2H-chromen-7-yl)amino-D-glucose], in data set [1], the “maximum excitation wavelength (Ex max)” value amounted to 361.0 nm and the “maximum fluorescence wavelength (Em max)” value is given as 460.0 nm.

Values taken from US10509041B2, “Glucose derivative, and cell imaging method and imaging agent using said derivative” (HIROSAKI UNIVERSITY, priority 2014, dated 2019).
